Test results: US3931147A, “Water-soluble derivatives of sodium mannoheptonate” (International Telephone and Telegraph Corporation, priority 1973, dated 1976)

Assay: Swelling of clay in water: viscosity and gel strength of sodium bentonite dispersion
Conditions: in words
Protocol: Additional tests were conducted to determine the utility of the metal complexes of the invention on the swelling of clay in water. 6 grams of the product were dissolved in 300 ml. of distilled water, and the pH of the solution was adjusted to 10.5 with sodium hydroxide. 30 grams of sodium bentonite were then added and the mixture was bottled and rolled 16 hours at 70°C. Viscosity and gel strengths were then determined using a Fann model 35 viscometer. Lowered viscosity and gels indicate decreased swelling and viscosity building.

Substance: aluminum
- inhibiting the swelling of bentonite clays: most effective
